Reference: patent publication US7666864B2, “Bicyclic nitroimidazole-substituted phenyl oxazolidinones” (priority 2008, dated 2010)
Converted amounts (≈) assume the structure as drawn.

Test system: M. tuberculosis (PA-resistant)
Test: microbe, parasite or virus in culture
Assay type: cell-based, Mycobacterium tuberculosis
Details: for MIC: Mycobacterium tuberculosis

Row | SMILES | MIC against PA-824 resistant strain of Mycobacterium tuberculosis H37Rv [micg/mL] | MIC [µg/mL] | activity against PA-824 resistant strain (in words)
1 | CC(=O)NC[C@H]1CN(c2ccc(-c3cnc(O[C@@H]4COc5nc([N+](=O)[O-])cn5C4)nc3)c(F)c2)C(=O)O1 [Example 8, (S,S)—N-(3-{3-Fluoro-4-[2-(2-nitro-6,7-dihydro-5H-imidazo[2,1-b][1,3]oxazin-6-yloxy)-pyrimidin-5-yl]-phenyl}-2-oxo-oxazolidin-5-ylmethyl)-acetamide] | 0.5 | 0.5 (≈ 0.974 µM) | 
2 | CC(=O)NC[C@H]1CN(c2ccc(-c3ccc(CO[C@@H]4COc5nc([N+](=O)[O-])cn5C4)cc3)c(F)c2)C(=O)O1 [Example 31, (S,S)—N-{3-[2-Fluoro-4′-(2-nitro-6,7-dihydro-5H-imidazo[2,1-b][1,3]oxazin-6-yloxymethyl)-biphenyl-4-yl]-2-oxo-oxazolidin-5-ylmethyl}-acetamide] | 1 | 1 (≈ 1.9 µM) | 
3 | CC(=O)NC[C@H]1CN(c2ccc(N3CCOCC3)c(F)c2)C(=O)O1 [Linezolid, linezolid, reference compound] |  | 0.5 (≈ 1.48 µM) | 
4 | O=[N+]([O-])c1cn2c(n1)OC[C@@H](OCc1ccc(OC(F)(F)F)cc1)C2 [PA-824, reference compound] |  | > 32 | loses its activity
